Patent US20110098177A1, “METHODS AND COMPOSITIONS OF PLANT MICRONUTRIENTS” (NOVUS INTERNATIONAL INC., priority 2006, published 2011)

What was measured:
Type in all cases: in vivo
[1] = test system: soybean plants (Asgrow 1102); experiment: Visual greenness ratings (1-5 scale) of soybean plants, open-field (Examples 11-12)
Protocol: The following experiments were performed on soybean plants growing in open-field plots during the summer and fall of 2008 at two production fields in West Central Minnesota. […] Trial design was a randomized complete block with 4 replications. Each plot measured 10' by 30' and consisted of five 22'' rows. Although all five rows of each plot were treated, only the center three rows (25' in length) of each plot were machine harvested. The two fields selected for these studies had historical Iron Deficiency Chlorosis (IDC) issues. The two field sites were planted by farmers with elite Roundup Ready commodity type soybean varieties with IDC tolerance (Asgrow 1102, Monsanto Corp.). […] BIOX-M was applied at a rate of 1.12 kg Mn/ha. […] All V4 treatments were applied in 10 gallons per acre of water with a backpack sprayer with a hand boom designed to “band” apply product directly to the plant row. Three nozzles with ConeJet TXVS-2 tips were oriented on either side and over the top of each row. This maximized the applied product to the plant tissue itself and minimized application of product to the soil surface. […] The V6 treatments (where applicable) were applied in 20 gallons per acre of water to increase the suspension of the BIOX products.

[2] = test system: soybean plants (Asgrow 1102); experiment: ICP-MS micronutrient content of soybean trifoliates (Examples 11-12); design: Micronutrient content from ICP-MS analysis: Mn: unit not given here; settings: for Micronutrient content from ICP-MS analysis: Fe: in ppm (unit assumed)
Protocol: The following experiments were performed on soybean plants growing in open-field plots during the summer and fall of 2008 at two production fields in West Central Minnesota. […] Trial design was a randomized complete block with 4 replications. Each plot measured 10' by 30' and consisted of five 22'' rows. Although all five rows of each plot were treated, only the center three rows (25' in length) of each plot were machine harvested. The two fields selected for these studies had historical Iron Deficiency Chlorosis (IDC) issues. The two field sites were planted by farmers with elite Roundup Ready commodity type soybean varieties with IDC tolerance (Asgrow 1102, Monsanto Corp.). […] BIOX-M was applied at a rate of 1.12 kg Mn/ha. […] All V4 treatments were applied in 10 gallons per acre of water with a backpack sprayer with a hand boom designed to “band” apply product directly to the plant row. Three nozzles with ConeJet TXVS-2 tips were oriented on either side and over the top of each row. This maximized the applied product to the plant tissue itself and minimized application of product to the soil surface. […] The V6 treatments (where applicable) were applied in 20 gallons per acre of water to increase the suspension of the BIOX products. […] The harvested plants were dried, ground, and subjected to Inductively Coupled Plasma-Mass Spectrometry (ICP-MS) analysis to determine plant micronutrient content.

[3] = test system: soybean plants (Asgrow 1102); experiment: Soybean seed protein and oil content (Examples 11-12); settings: in %
Protocol: (§1) The following experiments were performed on soybean plants growing in open-field plots during the summer and fall of 2008 at two production fields in West Central Minnesota. […] Trial design was a randomized complete block with 4 replications. Each plot measured 10' by 30' and consisted of five 22'' rows. Although all five rows of each plot were treated, only the center three rows (25' in length) of each plot were machine harvested. The two fields selected for these studies had historical Iron Deficiency Chlorosis (IDC) issues. The two field sites were planted by farmers with elite Roundup Ready commodity type soybean varieties with IDC tolerance (Asgrow 1102, Monsanto Corp.). […] BIOX-M was applied at a rate of 1.12 kg Mn/ha. […] All V4 treatments were applied in 10 gallons per acre of water with a backpack sprayer with a hand boom designed to “band” apply product directly to the plant row. Three nozzles with ConeJet TXVS-2 tips were oriented on either side and over the top of each row. This maximized the applied product to the plant tissue itself and minimized application of product to the soil surface. […] The V6 treatments (where applicable) were applied in 20 gallons per acre of water to increase the suspension of the BIOX products. Soybean seed was harvested after soybean maturity was reached (3 October at […], and 17 Oct. 2008 at Foxhome) and seed yields for each experimental treatment group were determined. In addition, seed samples from each treatment were dried to 13% moisture content, then analyzed for protein and oil content.

[4] = test system: soybean plants (Asgrow 1102); experiment: Soybean seed yield (Examples 11-12)
Protocol: as §1

[5] = test system: Tygress tomato plants; experiment: Foliar nutrient concentration 2 weeks after treatment, greenhouse tomato (Examples 4-6); settings: Mn 1.0 lb/acre
Protocol: (§2) The following experiments were performed in a green house during the fall of 2008 and spring of 2009 at GCREC, Balm, University of Florida. Crop set-up, procedures and variables were as follows.
(§3) Transplants of Tygress' tomato plants were planted in 2-gallon pots filled with commercial planting medium with nutrient concentration of Fe, Zn, Mn, Cu being negligible and insufficient for crop growth. Irrigation and non-micronutrient fertilizer were provided daily through microsprinklers at recommended rates for tomato production in Florida. No pesticides were used. Treatments were as described in Tables 4, 5 and 6 below.
(§4) Treatments were applied at 5 WAT (weeks after transplanting) using a water volume of 200 mL/plant. A non-ionic surfactant was added. Foliar tissue analysis was performed at 3 and 7 WAT on the non-applied newest leaves. The concentrations of N, P, K, Mg, Ca, B, Zn, Mn, Fe, and Cu in the foliar tissue were determined from foliar analysis by a commercial laboratory at 2 weeks before treatment and again at 2 weeks after treatment.
(§5) Deionized water was used for foliar applications, and other nutrients were applied as appropriate under non-limiting conditions. Marketable fruit were collected three times during the growing season, starting at 10 WAT (5 weeks after the initial treatment). Tomato fruit was graded as extra-large, large and medium. Non-marketable fruit were harvested and number and weight recorded but not sized.
(§6) Experimental design was a randomized complete block design with 6 replications. Data were analyzed using a general linear model, and means were separated using an LSD test at the 5% significance level.

[6] = test system: Tygress tomato plants; experiment: Yields of tomato fruits, greenhouse (Examples 4-6)
Protocol: as §2, §3, §4, §5, §6

## EDDHA chelated iron [BIOX-EDDI, reference compound]
[1]; 2.23 kg/ha, V4, V6, Jul. 15, 2008 Rating, Foxhome
  Mean visual greenness scores (1-5): 2.1
[1]; 2.23 kg/ha, V4, V6, Jul. 15, 2008 Rating, Renville
  Mean visual greenness scores (1-5): 2.9
[1]; 2.23 kg/ha, V4, V6, Jul. 29, 2008 Rating, Foxhome
  Mean visual greenness scores (1-5): 1.0 C
[1]; 2.23 kg/ha, V4, V6, Jul. 29, 2008 Rating, Renville
  Mean visual greenness scores (1-5): 1.4
[1]; 2.23 kg/ha, V4, Jul. 15, 2008 Rating, Foxhome
  Mean visual greenness scores (1-5): 2.8
[1]; 2.23 kg/ha, V4, Jul. 15, 2008 Rating, Renville
  Mean visual greenness scores (1-5): 2.6
[1]; 2.23 kg/ha, V4, Jul. 29, 2008 Rating, Foxhome
  Mean visual greenness scores (1-5): 2.0 A
[1]; 2.23 kg/ha, V4, Jul. 29, 2008 Rating, Renville
  Mean visual greenness scores (1-5): 1.3
[1]; BIOX-EDDI applied at V4 only, Foxhome site, 29 July rating
  Greenness of soybean plants compared to control, statement: not when applied at V4 only
[2]; 2.23 kg/ha, V4, V6, Foxhome
  Micronutrient content from ICP-MS analysis: Mn: 66.03
  Micronutrient content from ICP-MS analysis: Fe: 86.15
[2]; 2.23 kg/ha, V4, V6, Renville
  Micronutrient content from ICP-MS analysis: Mn: 91.09
  Micronutrient content from ICP-MS analysis: Fe: 99.56
[2]; 2.23 kg/ha, V4, Foxhome
  Micronutrient content from ICP-MS analysis: Mn: 91.22
  Micronutrient content from ICP-MS analysis: Fe: 82.37
[2]; 2.23 kg/ha, V4, Renville
  Micronutrient content from ICP-MS analysis: Mn: 86.45
  Micronutrient content from ICP-MS analysis: Fe: 96.89
[3]; 2.23 kg/ha, V4, V6, Foxhome
  Oil content (13% moisture): 18.56
  Protein content (13% moisture): 32.58
[3]; 2.23 kg/ha, V4, V6, Renville
  Oil content (13% moisture): 19.97
  Protein content (13% moisture): 31.97
[3]; 2.23 kg/ha, V4, Foxhome
  Oil content (13% moisture): 18.41
  Protein content (13% moisture): 32.56
[3]; 2.23 kg/ha, V4, Renville
  Oil content (13% moisture): 20.22
  Protein content (13% moisture): 32.14
[4]; 2.23 kg/ha, V4, V6, Foxhome
  Yield: 45.28 Bu/A
[4]; 2.23 kg/ha, V4, V6, Renville
  Yield: 24.15 Bu/A
[4]; 2.23 kg/ha, V4, Foxhome
  Yield: 38.98 Bu/A
[4]; 2.23 kg/ha, V4, Renville
  Yield: 27.19 Bu/A

## O=S(=O)([O-])[O-].[Mn+2] [BIOX-INM, manganese sulfate, reference compound]
[1]; 3.27 kg/ha, V4, Jul. 15, 2008 Rating, Foxhome
  Mean visual greenness scores (1-5): 3.0
[1]; 3.27 kg/ha, V4, Jul. 15, 2008 Rating, Renville
  Mean visual greenness scores (1-5): 2.4
[1]; 3.27 kg/ha, V4, Jul. 29, 2008 Rating, Foxhome
  Mean visual greenness scores (1-5): 1.5 A, B, C
[1]; 3.27 kg/ha, V4, Jul. 29, 2008 Rating, Renville
  Mean visual greenness scores (1-5): 1.0
[2]; 3.27 kg/ha, V4, Foxhome
  Micronutrient content from ICP-MS analysis: Mn: 86.58
  Micronutrient content from ICP-MS analysis: Fe: 87.35
[2]; 3.27 kg/ha, V4, Renville
  Micronutrient content from ICP-MS analysis: Mn: 83.90
  Micronutrient content from ICP-MS analysis: Fe: 101.17
[5]; 2 weeks after Mn treatment
  B concentration in tomato leaves: 25 ppm
  Ca concentration in tomato leaves: 0.6%
  Cu concentration in tomato leaves: 5 ppm
  Fe concentration in tomato leaves: 117 ppm
  K concentration in tomato leaves: 3.2%
  Mg concentration in tomato leaves: 0.3%
  N concentration in tomato leaves: 3.4%
  P concentration in tomato leaves: 0.6%
  Zn concentration in tomato leaves: 34 ppm
[5]; tomato leaves 2 weeks after Mn treatment
  Foliar Mn concentration: 80.9 a ppm
[3]; 3.27 kg/ha, V4, Foxhome
  Oil content (13% moisture): 18.32
  Protein content (13% moisture): 32.63
[3]; 3.27 kg/ha, V4, Renville
  Oil content (13% moisture): 19.80
  Protein content (13% moisture): 32.36
[6]; BIOX-M at 1.23 lb/acre or more, BIOX-EDM at 2.0 lb/acre, Mn-sulfate at 1.0 lb/acre
  Marketable tomato yield compared with non-treated control (in words): significantly higher than the non-treated control
[6]; Mn 1.0 lb/acre, tomato fruits
  Marketable yield: 4.0 a lb/plant
[4]; 3.27 kg/ha, V4, Foxhome
  Yield: 45.05 Bu/A
[4]; 3.27 kg/ha, V4, Renville
  Yield: 27.13 Bu/A
